Source: patent US11053213B2, “Pharmaceutical compounds” (ALMAC DISCOVERY LIMITED, priority 2016, dated 2021)

molecular target: USP19 (Homo sapiens (Human), UniProt O94966); assay: USP19 activity assay (fluorescence polarisation, Ubiquitin-Lys-TAMRA substrate); format: biochemical; conditions: full-length USP19 2.5 nM, 30 min pre-incubation, Ub substrate 500 nM; average of at least two duplicate experiments
Method: Unless otherwise stated, all other reagents were purchased from Sigma. Enzymatic reactions were conducted in black flat bottom polystyrene 384-well plates (Nunc) and 30 μL total volume. […] Inhibitors were stored as 10 mM DMSO stocks in an inert environment (low humidity, dark, low oxygen, room temperature) using the Storage Pod System and serial dilutions were prepared in buffer just prior to the assay (from 200 μM to 2 pM, 8-18 data point curve). Following incubation at RT for 30 min, the enzymatic reactions were initiated by dispensing the Ub substrate (500 nM, 10 μL). FP was measured every 15 min over a period of 90 min (within the linear range of the assay) using a Synergy 4 plate reader (BioTek) exciting at 530 nm and measuring the amount of parallel and perpendicular light at 575 nm. The FP signal was subsequently normalised to the no compound control.

Sequence of USP19 (O94966 whole entry): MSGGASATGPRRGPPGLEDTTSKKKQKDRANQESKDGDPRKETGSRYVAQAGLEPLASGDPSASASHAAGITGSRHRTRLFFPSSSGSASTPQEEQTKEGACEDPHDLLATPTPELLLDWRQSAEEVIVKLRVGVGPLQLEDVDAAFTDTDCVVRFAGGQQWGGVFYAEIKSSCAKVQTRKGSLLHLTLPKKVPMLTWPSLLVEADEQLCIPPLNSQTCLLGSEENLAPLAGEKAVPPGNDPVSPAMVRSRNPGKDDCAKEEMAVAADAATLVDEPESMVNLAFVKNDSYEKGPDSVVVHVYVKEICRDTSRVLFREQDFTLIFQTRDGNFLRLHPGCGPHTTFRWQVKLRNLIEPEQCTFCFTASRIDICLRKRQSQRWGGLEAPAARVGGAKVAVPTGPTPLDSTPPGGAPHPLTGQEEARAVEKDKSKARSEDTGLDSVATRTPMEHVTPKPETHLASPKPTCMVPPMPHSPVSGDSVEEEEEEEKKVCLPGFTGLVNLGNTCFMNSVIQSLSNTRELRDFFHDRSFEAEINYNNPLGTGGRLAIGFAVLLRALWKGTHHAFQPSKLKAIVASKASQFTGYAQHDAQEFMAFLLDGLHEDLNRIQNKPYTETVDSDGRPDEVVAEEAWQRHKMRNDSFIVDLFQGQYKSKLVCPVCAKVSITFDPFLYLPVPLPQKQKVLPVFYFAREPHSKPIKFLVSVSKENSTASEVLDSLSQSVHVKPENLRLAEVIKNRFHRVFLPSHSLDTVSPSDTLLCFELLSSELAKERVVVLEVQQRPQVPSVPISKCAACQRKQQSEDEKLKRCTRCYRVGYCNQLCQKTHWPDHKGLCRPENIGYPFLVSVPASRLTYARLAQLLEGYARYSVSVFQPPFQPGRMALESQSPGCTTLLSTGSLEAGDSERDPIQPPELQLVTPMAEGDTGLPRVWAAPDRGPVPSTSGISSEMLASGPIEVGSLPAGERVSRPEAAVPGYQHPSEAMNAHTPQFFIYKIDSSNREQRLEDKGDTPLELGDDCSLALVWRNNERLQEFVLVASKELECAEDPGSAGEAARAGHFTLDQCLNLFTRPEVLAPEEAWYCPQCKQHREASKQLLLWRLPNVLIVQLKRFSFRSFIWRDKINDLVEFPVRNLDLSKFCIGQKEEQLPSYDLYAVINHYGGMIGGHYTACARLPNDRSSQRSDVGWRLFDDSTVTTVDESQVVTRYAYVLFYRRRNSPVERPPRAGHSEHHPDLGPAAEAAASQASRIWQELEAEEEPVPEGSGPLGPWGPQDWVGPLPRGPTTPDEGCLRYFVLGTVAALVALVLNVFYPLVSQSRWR

Compound	IC50
COc1ccccc1-c1cc(=O)n(CC2(O)CCN(C(=O)C[C@@H](C)c3ccccc3)CC2)cn1 [Example 17, (R)-3-((4-Hydroxy-1-(3-phenylbutanoyl)piperidin-4-yl)methyl)-6-(2-methoxyphenyl)pyrimidin-4(3H)-one]	5 to 50 µM
CC(Cc1ccccc1)C(=O)N1CCC(O)(Cn2cnc(-c3ccccc3F)cc2=O)CC1 (racemic) [Example 5, (R,S)-6-(2-Fluorophenyl)-3-((4-hydroxy-1-(2-methyl-3-phenylpropanoyl)piperidin-4-yl)methyl)pyrimidin-4(3H)-one]	5 to 50 µM
C[C@H](CC(=O)N1CCC(O)(Cn2cc(Br)c(-c3ccccc3)cc2=O)CC1)c1ccccc1 [Example 1, (R)-5-Bromo-1-((4-hydroxy-1-(3-phenylbutanoyl)piperidin-4-yl)methyl)-4-phenylpyridin-2(1H)-one]	50 to 250 µM
C[C@H](CC1CCCCC1)C(=O)N1CCC(O)(Cn2cnc(-c3cn[nH]c3)cc2=O)C(C)(C)C1 (stereo partly drawn) [Example 132, 3-((1-((R)-3-Cyclohexyl-2-methylpropanoyl)-4-hydroxy-3,3-dimethylpiperidin-4-yl)methyl)-6-(1H-pyrazol-4-yl)pyrimidin-4(3H)-one]	5 to 50 µM
C[C@H](CC(F)(F)F)C(=O)N1CC[C@@](O)(Cn2cc(C(=O)N(C)C)c(-c3ccccc3F)cc2=O)C2(CCCC2)C1 [Example 223, 4-(2-Fluorophenyl)-1-(((S)-10-hydroxy-7-((R)-4,4,4-trifluoro-2-methylbutanoyl)-7-azaspiro[4.5]decan-10-yl)methyl)-N,N-dimethyl-6-oxo-1,6-dihydropyridine-3-carboxamide]	0.5 to 5 µM
C[C@H](CC(=O)N1CCC(O)(Cn2cc(-c3ccccc3)c(-c3ccccc3)cc2=O)CC1)c1ccccc1 [Example 98, (R)-1-((4-Hydroxy-1-(3-phenylbutanoyl)piperidin-4-yl)methyl)-4,5-diphenylpyridin-2(1H)-one]	5 to 50 µM
CCC(CC1CCCCC1)C(=O)N1CCC(O)(Cn2cnc(-c3ccccc3F)cc2=O)CC1 (stereo not drawn) [Example 40, 3-((1-(2-(Cyclohexylmethyl)butanoyl)-4-hydroxypiperidin-4-yl)methyl)-6-(2-fluorophenyl)pyrimidin-4(3H)-one]	5 to 50 µM
Cc1nc(-c2ccccc2)cc(=O)n1CC1(O)CCN(C(=O)C[C@@H](C)c2ccccc2)CC1 [Example 18, (R)-3-((4-Hydroxy-1-(3-phenylbutanoyl)piperidin-4-yl)methyl)-2-methyl-6-phenylpyrimidin-4(3H)-one]	5 to 50 µM
C[C@H](CC1CCCCC1)C(=O)N1CC[C@](O)(Cn2cc(C(=O)N(C)C)c(-c3ccccc3)cc2=O)C(C)(C)C1 [Example 122, 1-(((R)-1-((R)-3-Cyclohexyl-2-methylpropanoyl)-4-hydroxy-3,3-dimethylpiperidin-4-yl)methyl)-N,N-dimethyl-6-oxo-4-phenyl-1,6-dihydropyridine-3-carboxamide]	50 to 250 µM
C[C@H](CC1CCCCC1)C(=O)N1CC[C@@](O)(Cn2cc(C(=O)N(C)C)c(C3CC3)cc2=O)C2(CCCC2)C1 [Example 232, 1-(((S)-7-((R)-3-Cyclohexyl-2-methylpropanoyl)-10-hydroxy-7-azaspiro[4.5]decan-10-yl)methyl)-4-cyclopropyl-N,N-dimethyl-6-oxo-1,6-dihydropyridine-3-carboxamide]	< 0.5 µM
C[C@H](CC1CCCCC1)C(=O)N1CC[C@@](O)(Cn2cc(C(=O)N3CCCC3)c(-c3ccccc3)cc2=O)C(C)(C)C1 [Example 123, 1-(((S)-1-((R)-3-Cyclohexyl-2-methylpropanoyl)-4-hydroxy-3,3-dimethylpiperidin-4-yl)methyl)-4-phenyl-5-(pyrrolidine-1-carbonyl)pyridin-2(1H)-one]	< 0.5 µM
Cc1ccc(-c2cc(=O)n(CC3(O)CCN(C(=O)C[C@@H](C)c4ccccc4)CC3)cc2C(=O)N(C)C(C)C)cc1 [Example 96, (R)-1-((4-Hydroxy-1-(3-phenylbutanoyl)piperidin-4-yl)methyl)-N-isopropyl-N-methyl-6-oxo-4-(p-tolyl)-1,6-dihydropyridine-3-carboxamide]	5 to 50 µM
